Test results: US12605374B2, “Methods for drug screening and compositions useful for the inhibition of cell proliferation and/or cell survival” (The Brigham and Women's Hospital, Inc., priority 2019, dated 2026)
Entries after “also recorded” stand apart in the source; their conditions may differ.

What was measured:
Phospholipase A2 = Phospholipase A2 (Apis mellifera, UniProt P00630); type: biochemical
[1] = molecular target: T1, recombinant human Topoisomerase I (Homo sapiens, UniProt P11387); experiment: Topoisomerase I and DNA binding gel electrophoresis assay; type: biochemical
T1 construct: purchased TopoGEN, Inc. TG2005H
T1 sequence (P11387 1-765): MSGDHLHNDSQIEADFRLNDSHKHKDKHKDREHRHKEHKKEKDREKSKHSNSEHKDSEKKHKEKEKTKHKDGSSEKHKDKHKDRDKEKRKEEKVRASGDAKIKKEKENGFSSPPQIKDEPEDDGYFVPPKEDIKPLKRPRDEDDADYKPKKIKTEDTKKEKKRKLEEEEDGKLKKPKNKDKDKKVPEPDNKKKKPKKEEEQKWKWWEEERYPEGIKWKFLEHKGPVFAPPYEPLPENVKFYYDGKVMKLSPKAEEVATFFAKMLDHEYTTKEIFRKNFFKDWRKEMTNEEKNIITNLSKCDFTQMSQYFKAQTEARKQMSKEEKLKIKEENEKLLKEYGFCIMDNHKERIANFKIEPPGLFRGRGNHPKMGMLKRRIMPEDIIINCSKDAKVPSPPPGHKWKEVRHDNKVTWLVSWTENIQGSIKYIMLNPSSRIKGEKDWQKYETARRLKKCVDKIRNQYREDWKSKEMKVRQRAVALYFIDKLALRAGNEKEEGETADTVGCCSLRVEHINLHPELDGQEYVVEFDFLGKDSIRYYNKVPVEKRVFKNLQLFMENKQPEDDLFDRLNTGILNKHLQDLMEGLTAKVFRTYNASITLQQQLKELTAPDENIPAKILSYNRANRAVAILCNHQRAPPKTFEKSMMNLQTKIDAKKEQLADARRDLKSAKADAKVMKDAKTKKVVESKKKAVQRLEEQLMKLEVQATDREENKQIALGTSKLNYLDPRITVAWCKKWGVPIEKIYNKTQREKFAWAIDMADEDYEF
Procedure: FIG. 12: Topoisomerase I and DNA binding assay for DA5. The effect of DA5 on Topoisomerase-mediated DNA unwinding is measured through a gel electrophoresis assay (see Methods).
0.5 ug of pHOT-1 supercoiled DNA (TopoGEN, Inc. TG2030-2) was combined with 2× Topoisomerase I assay buffer (50 mM Tris-HCL (ph7.9), 1 mM EDTA, 1 mM DTT, 20% (v/v) glycerol, 50 mM NaCl), nuclease free water and either DMSO vehicle control, m-AMSA positive control (100-1000 uM; TopoGEN, Inc. […] TG2005H) was added to treatments corresponding to lanes 3-12 with 2 ul of dilution buffer (5 mM Tris-HCL (pH 7.9), 1 mM EDTA, 1 mM DTT, 50% (v/v) glycerol, 500 mM NaCl) added to control treatments lacking enzyme (lanes 2, 13 and 14). Reactions were mixed and incubated at 37° C. for 30 minutes. Reactions were terminated with the addition of 20 ul nuclease free water and 50 ul of 1-butanol (water-saturated) followed by vortex and centrifugation at 13,000 rpm for 1 minute. The lower aqueous phase was removed and added to 50 ul chloroform/isoamyl alcohol (24/1) and 50 ul of 2×STEB buffer (40% (w/v) sucrose, 100 mM Tris-HCL (pH 8), 1 mM EDTA, 0.5 mg/ml bromophenol blue) followed by mixing and centrifugation at 13,000 rpm for 1 minute. […] The gel was stained with ethidium bromide for 15 minutes followed by de-staining in distilled water for 10 minutes. Gels were exposed and images acquired using the iBrightFL1000 gel documentation system (Invitrogen).

zebrafish embryos [2] = experiment: DA5 dose, time course and washout analysis of developmental delay/arrest; type: in vivo
Text: FIG. 4 (A)-(E): Function of delay/arrest compounds. 7 of the 10 compounds predicted as having a delay/arrest phenotype with the highest confidence caused obvious but divergent delay/arrest effects (A). For chemical structures associated with these Chembridge IDs see Figure S13. (www.chembridge.com). Some arrested development at shield stage, while others caused a slower developmental progression.
We reasoned that this was likely due to differences in the target affinities of the various DA compounds.

zebrafish embryos [3] = experiment: Respiration rate analysis (Seahorse XF24 oxygen consumption); type: in vivo; details: embryos from 5 hpf, versus DMSO control
Procedure: Analysis of embryonic respiration was performed using a Seahorse XF24 analyzer (Agilent). Embryos at 5 hours post fertilization were arrayed in E3 media at 3 per well in a 24-well standard Seahorse plate using an isolating mesh (as in Stackley et al^72). Each plate contained four replicates of each indicated compound of interest, as well as 4 control wells receiving the equivalent DMSO as contained in the indicated compound solution, and 4 wells with no embryos present to act as a baseline for oxygen content of the media. The sample baseline was read for 5 cycles (3 minute mix, 2 minute wait, 5 minute measure), then compounds were introduced in a single 40-cycle injection phase (3 minute mix, 2 minute wait, 5 minute measure). Measurement data were exported using Seahorse software (Agilent) and averaged over 3 experimental days.

Phospholipase C = molecular target: T2, Phospholipase C (Bacillus cereus, UniProt P09598); experiment: In vitro Phospholipase C activity assay (EnzChek Direct kit); type: biochemical
T2 construct: purchased Thermo Fisher
T2 sequence (P09598 39-283 limits assumed): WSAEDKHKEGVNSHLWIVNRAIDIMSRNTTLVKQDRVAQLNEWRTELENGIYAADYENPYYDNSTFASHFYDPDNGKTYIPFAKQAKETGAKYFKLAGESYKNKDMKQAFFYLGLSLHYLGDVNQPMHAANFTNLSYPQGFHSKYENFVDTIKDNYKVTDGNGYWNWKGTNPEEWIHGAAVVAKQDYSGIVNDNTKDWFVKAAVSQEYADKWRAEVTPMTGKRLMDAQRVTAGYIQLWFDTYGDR
Procedure: Phospholipase D, C, and A2 activity were measured in vitro using commercial kits. For Phospholipase D, the Amplex Red Phospholipase D Assay Kit (Thermo Fisher) was used with Phospholipase D (Streptomyces chromofuscus—Enzo Life Sciences) added, and FIPI (4-Fluoro-N-(2-(4-(5-fluoro-1H-indol-1-yl)piperidin-1-yl)ethyl)benzamide, 5-Fluoro-2-indolyl deschlorohalopemide) hydrochloride (Sigma) acting as a positive control. To assay Phospholipase A2 activity, we used an EnzChek Phospholipase A2 Assay kit (Thermo Fisher) with Manoalide (Santa Cruz) as a positive control. To assay Phospholipase C activity, we used an EnzChek Direct Phospholipase C Assay Kit (Thermo Fisher) with D609 (Sigma) as a positive control. Tyrosinase activity was measured using a colorimetric Tyrosinase inhibitor screening kit (BioVision) with PTU as a positive control. For each assay, solutions were prepared in 96-well black clear bottom plates and read using a FLUOstar Omega plate reader at the wavelengths recommended by the respective manufacturers, with each measurement representing the average of at least 4 plate wells.

Chain of Phospholipase A2 (P00630 34-167 limits assumed): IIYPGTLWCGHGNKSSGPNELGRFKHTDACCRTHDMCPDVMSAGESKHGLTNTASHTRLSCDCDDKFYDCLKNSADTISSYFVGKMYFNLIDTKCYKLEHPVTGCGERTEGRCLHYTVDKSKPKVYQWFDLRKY

Structure (SMILES): CCC1(CC)CCN(C(=O)c2cc(COc3ccc4ncccc4c3)on2)C1 [ChemBridge ID 65692859, 6-([3-[(3,3-diethylpyrrolidin-1-yl)carbonyl]isoxazol-5-yl]methoxy)quinoline]
- activity of phospholipase A2 (Phospholipase A2): increased activity
- DNA-binding / DNA intercalation / inhibition of Topoisomerase I ([1]; DNA intercalation analysis, listed as DA5): not due to DNA-binding or inhibition of Topoisomerase (TOPO) I; also recorded: not observed
- effect on Topoisomerase-mediated DNA unwinding (gel electrophoresis) ([1]; concentrations up to 100 mM (so in the source), versus DMSO): no more effect on DNA cleavage than DMSO
- time course analysis: effect in more developed embryos (zebrafish embryos [2]; introduced at 24 hours post fertilization and beyond): mortality being almost immediate
- time course analysis: effect on early development (zebrafish embryos [2]; introduced at early stages (<12 h), up to and during gastrulation, listed as DA5): arrest up to and during gastrulation immediately after introduction; also recorded: arrested development at any stage of early (<12 h) development
- developmental phenotype (zebrafish embryos [2]; introduced in zebrafish embryo medium at 5 μM): developmental delay
- developmental phenotype (zebrafish embryos [2]; introduced in zebrafish embryo medium at 10 μM): sphere stage arrest
- recovery of embryos after washout (zebrafish embryos [2]; washout of compound): did not allow embryos to recover
- respiration rate (oxygen consumption rate) (zebrafish embryos [3]): consistent respiration rate
- activity of phospholipase C (Phospholipase C): increased activity
